The values that follow come from PMC8395111 (International Journal of Molecular Sciences, 2021).

The conditions of series [1]: cited from earlier work. The text has this: The blood-brain barrier (BBB) is formed by a tightly sealed monolayer of endothelial cells, and the tight junctions between the endothelial cells are responsible for the barrier function of the BBB. Various drugs are discovered to treat central nervous system (CNS) disorders but fail to enter the market because of their inability to cross the BBB [19]. Vemurafenib, an antitumoral agent that is capable to pass the BBB, was approved in 2011. It inhibits the BRAF-serine/threonine-kinase and leads to a median survival of 13.6 months compared to 9.7 months upon treatment with dacarbazine [ ...

Series [2] concerns glioblastoma cell line LN-229. Format: cell-based. The settings on record: LN-229, PI-uptake. On the procedure: (§1) To determine peptide-induced cell death, cells were resuspended in respective media (see Section 2.2) and diluted to a concentration of 1 × 10^6 cells/mL. 100 µL Aliquots (10^5 cells) were incubated with different peptide concentrations (5 µM to 100 µM) for up to 8 h in the presence of propidium iodide PI (2 µL/10^5 cells of 50 µg/mL, Molecular Probes Inc., Eugene, OR, USA) at room temperature in black 96-well plates. PI-uptake was measured after 0, 1, 2, 4 and 8 h using the GloMax® Multi+ Detection System (Promega, Madison, WI, USA). Cytotoxicity was calculated from the percentage of PI-positive cells in media alone (P0) and in the presence of peptide (PX) (see Equation (3)). Triton-X-100 was used to determine 100% of PI-positive cells (P100). (3) %PI−uptake=100×(PX−P0)/(P100−P0)
(§2) Excitation and emission wavelengths were 536 nm and 617 nm, respectively. The cytotoxicity of the peptides was further investigated in the presence of different serum types and amounts, as well as in the presence of protease inhibition.

For series [3], the system named is melanoma cell line SBcl-2. It is filed as cell-based. The note with it: SBcl-2, PI-uptake. On the procedure: as §1, §2
Series [4] concerns glioblastoma cell line U-87 mg. Format: cell-based. The settings on record: PI-uptake. The procedure:
as §1, §2

The nature of series [5]: Ex vitro stability study in human serum, SDS-PAGE. It is filed as in vitro ADME. The note with it: 50 µg peptide in 200 µL, 37 °C, Coomassie. The procedure:
(§3) Peptide stability was tested in the presence of fetal bovine serum (FBS, Gibco®) and human serum (HS, Sigma-Aldrich, Deisenhofen, Germany). Therefore 50 µg of the peptide was mixed with 0 µL (0%), 4 µL (2%) and 20 µL (10%) pure FBS or HS and refilled with PBS buffer to a total volume of 200 µL and incubated for 1 day, 6 days and 7 days at 37 °C. Sample aliquots of 10 µL were taken before incubation (0 h) and after 1 h, 8 h, 24 h, 2 days and 7 days of incubation. The aliquots (10 µL) were immediately mixed with 10 µL 2 × loading sample buffer and stored at −20 °C. The collected samples of the stability studies were analyzed by SDS- polyacrylamide gel electrophoresis (BioRad, Mini-PROTEAN Tetra System). As a standard, the Ultra-low Range Molecular Weight Marker M3546 (Sigma-Aldrich, Deisenhofen, Germany) was used. Before use, the collected samples of the stability studies (10 µL aliquot + 10 µL 2 xLD), as well as the Ultra-Low Molecular Weight marker (ULMW), were brought to room temperature. A concentration series in the range of 0.5 µg, 1 µg and 2.5 µg peptide per 10 µL sample volume was prepared in PBS for each peptide. In total, 10 µL of the resulting samples (0.5 µg, 1 µg and 2.5 µg peptide) were mixed with 10 µL 2 × loading buffer. Afterwards, all samples (collected samples, ULMW, concentration series) were incubated at 95 °C for 10 min.

The conditions of series [6]: pH 7.4.
Procedure: (§4) Spectra of tryptophan fluorescence were measured at room temperature with a Cary Eclipse fluorescence spectrophotometer of Varian (Salt Lake City, UT, USA). The excitation wavelength was set to 280 nm, and the slid-width was 10 nm. The emission was recorded between 300 nm and 410 nm.
(§5) Quenching of Tryptophan was carried out in the presence and absence of phospholipid liposomes (lipid-to-peptide ratio 25:1) using 0.1, 0.4 and 0.7 M acrylamide. The data were analyzed according to the Stern–Volmer equation (Equation (2)):(2) F0/F=1+KSV×[Q] where F0 and F represent the fluorescence emission intensities in the absence and presence of the quencher molecule (Q), and KSV is the Stern–Volmer quenching constant, which is a quantitative measure for the accessibility of tryptophan to acrylamide [80].
Series [7] in a line: Ex vitro stability study in fetal bovine serum, SDS-PAGE. Format: in vitro ADME. The settings on record: 50 µg peptide in 200 µL, 37 °C, Coomassie, at least two measurements. The procedure:
as §3

Series [8] can be described thus: Tryptophan fluorescence and acrylamide quenching in buffer (solubility/aggregation). The note with it: for λ em,max / KSV (Stern–Volmer constant): PBS, mean ± SD, three experiments; for λ em,max: Trp fluorescence, excitation 280 nm, room temperature; for KSV (Stern–Volmer constant): acrylamide 0.1, 0.4, 0.7 M.
Procedure: as §4, §5
Series [9] can be described thus: Propidium iodide-uptake toxicity assay, NHDF. The settings on record: human, normal human dermal fibroblasts (NHDF), PI-uptake, fibroblast growth medium (2% FBS). It is filed as cell-based, human. On the procedure: as §1, with “([…])” for “(10^5 cells) were incubated with different peptide concentrations (5 µM to 100 µM)”
as §2

The subject of another series is melanoma cell line A375. Format: cell-based. The note with it: A375, PI-uptake, 10% FBS. The procedure: as §1, §2
The standard growth medium used for cell line A375 was DMEM containing 10% fetal bovine serum (FBS). Before the study of peptide-induced cytotoxicity, cells were diluted to 10^5 cells/100 µL in DMEM containing 2% FBS. […]

For series [10], the system named is normal human dermal fibroblasts NHDF. Put plainly: Propidium iodide-uptake toxicity assay, NHDF. Format: cell-based. The note with it: 2–20 µM peptide, 8 h. The procedure:
as §1, with “([…])” for “(10^5 cells) were incubated with different peptide concentrations (5 µM to 100 µM)”
as §2

Assay in series [11]: not given
The source holds these as a separate data set.

The mark [12] stands for this setting: 2% HS in PBS, 7 days, at least two measurements.
The mark [13] stands for this setting: 2% FBS in PBS, up to 7 days (9D-RDP215 main series 2 days, repeat 7 days).

Read-outs that look alike come from different tables or passages of the source. Square brackets hold non-standard residues; d marks the D form. Peptide text beside a SMILES is read from it.

Regarding `CN(C)/N=N/c1[nH]cnc1C(N)=O` [dacarbazine], the median survival in series [1] is reported as 9.7 months.

The term CC50 denotes the concentration that lowers cell viability or growth by half. Consider `CC[C@H](C)[C@H](NC(=O)[C@@H](CCCNC(=N)N)NC(=O)[C@H](Cc1c[nH]c2ccccc12)NC(=O)[C@H](N)Cc1ccccc1)C(=O)N[C@H](CCCNC(=N)N)C(=O)N[C@H](C(=O)N[C@H](CCCNC(=N)N)C(=O)N[C@H](CCCNC(=N)N)C(=O)N1CCC[C@H]1C(=O)N[C@H](CCCNC(=N)N)C(=O)N[C@H](CCCNC(=N)N)C(=O)N[C@H](C(=O)N[C@H](CCCNC(=N)N)C(=O)N[C@H](C(=O)N[C@H](CCCNC(=N)N)C(=O)N[C@@H](Cc1c[nH]c2ccccc12)C(=O)N[C@H](Cc1ccccc1)C(N)=O)[C@@H](C)CC)[C@@H](C)CC)[C@@H](C)CC` [9D-RDP215, 9D-R-DIM-P-LF11-215] (H-[dF]W[dR]I[dR]I[dR][dR]P[dR][dR]I[dR]I[dR]W[dF]-NH2), for which the entries for the “LC50 after 8 h” value in series [2], in [3] and in series [4] were 1.4 ± 5.1 µM, 1.8 ± 0.1 µM and 1.6 ± 0.1 µM, respectively. Also, the peptide degradation result in [5] (setting [12]) was “does not show any peptide degradation”; in series [5] (10% HS in PBS, up to 7 days, at least two measurements), “does not show any peptide degradation”; in series [7] (setting [13]), “no degradation”; in series [7] (10% FBS in PBS, up to 7 days), “no degradation”. For the same molecule, the “solubility / aggregation in buffer” value in [6] was “completely dissolved and not aggregated”. In series [8], the “λ em,max” value amounted to 354 ± 0.5 nm. The “KSV (Stern–Volmer constant)” value in series [8] was 27.0 ± 2.8 M⁻¹. Besides, in series [9], the CC50 at 4 h came to 58.8 ± 4.2 µM. The CC50 at 8 h in series [9] turned out to be 18.9 ± 1 µM.

`CCCS(=O)(=O)Nc1ccc(F)c(C(=O)c2c[nH]c3ncc(-c4ccc(Cl)cc4)cc23)c1F` [Vemurafenib, vemurafenib]: the median survival in series [1] is 13.6 months.

As for `CC[C@H](C)[C@H](NC(=O)[C@H](CCCNC(=N)N)NC(=O)[C@@H](NC(=O)[C@H](CCCNC(=N)N)NC(=O)[C@H](CCCNC(=N)N)NC(=O)[C@@H]1CCCN1C(=O)[C@H](CCCNC(=N)N)NC(=O)[C@H](CCCNC(=N)N)NC(=O)[C@@H](NC(=O)[C@H](CCCNC(=N)N)NC(=O)[C@@H](NC(=O)[C@H](CCCNC(=N)N)NC(=O)[C@H](Cc1c[nH]c2ccccc12)NC(=O)[C@@H](N)Cc1ccccc1)[C@@H](C)CC)[C@@H](C)CC)[C@@H](C)CC)C(=O)N[C@@H](CCCNC(=N)N)C(=O)N[C@@H](Cc1c[nH]c2ccccc12)C(=O)N[C@@H](Cc1ccccc1)C(N)=O` [RDP215, R-DIM-P-LF11-215] (H-FWRIRIRRPRRIRIRWF-NH2), the decrease of KSV vs buffer amounted to 20.7 M⁻¹. In series [2], the “LC50 after 8 h” value is reported as 1.7 ± 0.1 µM. In addition, the “LC50 after 8 h” value in [3] is 4.7 ± 0.4 µM. Moreover, the “LC50 after 8 h” value in [4] worked out at 3.0 ± 0.1 µM. The peptide degradation entry in [5] (2% HS in PBS, 1 h to 2 days) is given as “ongoing peptide degradation”. The peptide degradation entry in series [5] (setting [12]) is “completely degraded”. In series [5] (10% HS in PBS, 24 h, at least two measurements), the peptide degradation entry is “completely degraded”. Besides, the peptide degradation entry in series [7] (setting [13]) is recorded as “No degradation”. For the same molecule, the peptide degradation entry in series [7] (10% FBS in PBS, up to 7 days) is “No degradation”. The “LC50 after 4 h” value in the series with melanoma cell line A375 (4 h) is 17.1 ± 1.5 µM. Besides, the “LC50 after 8 h” value in the series with melanoma cell line A375 (8 h) amounted to 3.8 ± 0.3 µM. Besides, the “solubility / aggregation in buffer” value in [8] (PBS pH 7.4, concluded from Trp emission maximum and KSV) is “completely dissolved and not aggregated”. In series [8], the “λ em,max” value stood at 356 ± 0 nm and the “KSV (Stern–Volmer constant)” value is 24.7 ± 5.4 M⁻¹. Also, the “harm on NHDF cells (PI-uptake)” value in series [10] is “no harm”. In series [9], the CC50 at 4 h is 99.1 ± 0.1 µM and it took 68.2 ± 1.8 µM to reach half-maximal cytotoxicity (CC50 at 8 h). Moreover, in series [11], the λem,max with DPPS came to 336 nm.
